Results from patent US10499642B2, “Isoxazoline-substituted benzamides and analogues as insecticides” (SYNGENTA PARTICIPATIONS AG, priority 2015, dated 2019).
Like-named read-outs stand apart in the source and are kept apart here.

How the values were obtained:
Format in all cases: in vivo
Plutella xylostella = Plutella xylostella (diamond back moth) artificial diet test; details: 120 h, read-out: effect in at least one of the two categories (mortality or growth inhibition)
Protocol: Plutella xylostella (Diamond Back Moth):
(§1) 24-well microtiter plates with artificial diet were treated with aqueous test solutions prepared from 10′000 ppm DMSO stock solutions by pipetting. After drying, the plates were infested with L2 larvae (10 to 15 per well). The samples were assessed for mortality and growth inhibition in comparison to untreated samples 5 days after infestation. The following compounds gave an effect of at least 80% in at least one of the two categories (mortality or growth inhibition) at an application rate of 200 ppm: […]

Thrips tabaci = Thrips tabaci (onion thrips) sunflower leaf disc test; details: foliar, 144 h
Protocol: Thrips tabaci (Onion Thrips):
(§2) Sunflower leaf discs were placed on agar in 24-well microtiter plates and sprayed with aqueous test solutions prepared from 10′000 ppm DMSO stock solutions. After drying the leaf discs were infested with a thrips population of mixed ages. The samples were assessed for mortality 6 days after infestation.

Myzus persicae = Myzus persicae (green peach aphid) sunflower leaf disc test; details: foliar, 144 h
Protocol: Myzus persicae (Green Peach Aphid):
Sunflower leaf discs were placed on agar in a 24-well microtiter plate and sprayed with test solutions at an application rate of 200 ppm. After drying, the leaf discs were infested with an aphid population of mixed ages. After an incubation period of 6 days after treatment, samples were checked for mortality. The following compounds gave at least 80% mortality of Myzus persicae: […]

Tetranychus urticae = Tetranychus urticae (two-spotted spider mite) bean leaf disc test; details: foliar, 192 h
Protocol: Tetranychus urticae (Two-Spotted Spider Mite):
as §2, with “Bean” for “Sunflower”, “discs” for “discs were placed”, “were” for “and”, “mite” for “thrips”, “on mixed population (mobile stages) 8” for “6”

Spodoptera littoralis = Spodoptera littoralis (Egyptian cotton leaf worm) cotton leaf disc test; details: foliar, 72 h, read-out: control (at least one of mortality, anti-feedant effect, and growth inhibition)
Protocol: Spodoptera littoralis (Egyptian Cotton Leaf Worm)
Cotton leaf discs were placed on agar in 24-well microtiter plates and sprayed with aqueous test solutions prepared from 10′000 ppm DMSO stock solutions. After drying the leaf discs were infested with five L1 larvae. The samples were assessed for mortality, anti-feedant effect, and growth inhibition in comparison to untreated samples 3 days after infestation. Control of Spodoptera littoralis by a test sample is when at least one of mortality, anti-feedant effect, and growth inhibition is higher than the untreated sample.

Diabrotica Balteata = test: Diabrotica balteata (corn root worm) maize sprout test; details: 96 h, read-out: effect in at least one of the two categories (mortality or growth inhibition)
Protocol: Diabrotica Balteata, (Corn Root Worm)
as §1, with “Maize sprouts, placed on an agar layer in 24-well” for “24-well”, “plates” for “plates with artificial diet”, “spraying.” for “pipetting.”, “(6” for “(10”, “10” for “15”, “4” for “5”

[1] = application rate 200 ppm, artificial diet, L2 larvae, 5 days after infestation
[2] = application rate 200 ppm, sunflower leaf discs, population of mixed ages, 6 days after infestation, read-out: mortality
[3] = application rate 200 ppm, sunflower leaf discs, population of mixed ages, 6 days after treatment, read-out: mortality
[4] = application rate 200 ppm, bean leaf discs, mixed population (mobile stages), 8 days after infestation, read-out: mortality
[5] = application rate 200 ppm, cotton leaf discs, L1 larvae, 3 days after infestation
[6] = application rate 200 ppm, maize sprouts, L2 larvae, 4 days after infestation

CCOC1=NO[C@H](NC(=O)c2ccc(C3=NO[C@@](c4cc(Cl)cc(Cl)c4)(C(F)(F)F)C3)cc2C)C1 (single isomer, unassigned) [Compound A158]
≥ 80%: percent effect (mortality or growth inhibition) at 200 ppm (Plutella xylostella) | mortality at 200 ppm (Thrips tabaci) | mortality at 200 ppm (Myzus persicae) | mortality at 200 ppm (Tetranychus urticae) | percent control (mortality, anti-feedant effect or growth inhibition) at 200 ppm (Spodoptera littoralis) | percent effect (mortality or growth inhibition) at 200 ppm (Diabrotica Balteata)

Cc1cc(C2=NO[C@@](c3cc(Cl)c(F)c(Cl)c3)(C(F)(F)F)C2)ccc1C(=O)NC1CC(OCC(F)(F)C(F)C(F)(F)F)=NO1 (stereo partly drawn) [Compound A075]
≥ 80%: percent effect (mortality or growth inhibition) at 200 ppm (Plutella xylostella) | mortality at 200 ppm (Thrips tabaci) | mortality at 200 ppm (Myzus persicae) | mortality at 200 ppm (Tetranychus urticae) | percent control (mortality, anti-feedant effect or growth inhibition) at 200 ppm (Spodoptera littoralis) | percent effect (mortality or growth inhibition) at 200 ppm (Diabrotica Balteata)

Cc1cc(C2=NO[C@@](c3cc(Cl)c(F)c(Cl)c3)(C(F)(F)F)C2)ccc1C(=O)NC1CC=NO1 (stereo partly drawn) [Compound A091]
≥ 80%: percent effect (mortality or growth inhibition) at 200 ppm (Plutella xylostella) | mortality at 200 ppm (Thrips tabaci) | mortality at 200 ppm (Myzus persicae) | mortality at 200 ppm (Tetranychus urticae) | percent control (mortality, anti-feedant effect or growth inhibition) at 200 ppm (Spodoptera littoralis) | percent effect (mortality or growth inhibition) at 200 ppm (Diabrotica Balteata)

CNC1=NOC(NC(=O)c2ccc(C3=NO[C@@](c4cc(Cl)c(F)c(Cl)c4)(C(F)(F)F)C3)cc2C)C1 (stereo partly drawn) [Compound A120]
≥ 80%: percent effect (mortality or growth inhibition) at 200 ppm (Plutella xylostella) | mortality at 200 ppm (Thrips tabaci) | mortality at 200 ppm (Myzus persicae) | mortality at 200 ppm (Tetranychus urticae) | percent control (mortality, anti-feedant effect or growth inhibition) at 200 ppm (Spodoptera littoralis) | percent effect (mortality or growth inhibition) at 200 ppm (Diabrotica Balteata)

Cc1cc(C2=NO[C@@](c3cc(Cl)c(F)c(Cl)c3)(C(F)(F)F)C2)ccc1C(=O)NC1CC(Oc2ccc(Cl)cc2)=NO1 (stereo partly drawn) [Compound A108, N-[3-(4-chlorophenoxy)-4,5-dihydroisoxazol-5-yl]-4-[(5S)-5-(3,5-dichloro-4-fluoro-phenyl)-5-(trifluoromethyl)-4H-isoxazol-3-yl]-2-methyl-benzamide]
≥ 80%: percent effect (mortality or growth inhibition) at 200 ppm (Plutella xylostella) | mortality at 200 ppm (Thrips tabaci) | mortality at 200 ppm (Myzus persicae) | mortality at 200 ppm (Tetranychus urticae) | percent control (mortality, anti-feedant effect or growth inhibition) at 200 ppm (Spodoptera littoralis) | percent effect (mortality or growth inhibition) at 200 ppm (Diabrotica Balteata)

Cc1cc(C2=NO[C@@](c3cc(Cl)c(F)c(Cl)c3)(C(F)(F)F)C2)ccc1C(=O)N(C=O)C1CC(Br)=NO1 (stereo partly drawn) [Compound A002, N-(3-bromo-4,5-dihydroisoxazol-5-yl)-4-[(5S)-5-(3,5-dichloro-4-fluoro-phenyl)-5-(trifluoromethyl)-4H-isoxazol-3-yl]-N-formyl-2-methyl-benzamide]
≥ 80%: percent effect (mortality or growth inhibition) at 200 ppm (Plutella xylostella) | mortality at 200 ppm (Thrips tabaci) | mortality at 200 ppm (Myzus persicae) | mortality at 200 ppm (Tetranychus urticae) | percent control (mortality, anti-feedant effect or growth inhibition) at 200 ppm (Spodoptera littoralis) | percent effect (mortality or growth inhibition) at 200 ppm (Diabrotica Balteata)

Cc1cc(C2=NO[C@@](c3cccc(C(F)(F)F)c3)(C(F)(F)F)C2)ccc1C(=O)NC1CC(Br)=NO1 (stereo partly drawn) [Compound A058]
≥ 80%: percent effect (mortality or growth inhibition) at 200 ppm (Plutella xylostella; [1]) | mortality at 200 ppm (Thrips tabaci; [2]) | mortality at 200 ppm (Myzus persicae; [3]) | mortality at 200 ppm (Tetranychus urticae; [4]) | percent control (mortality, anti-feedant effect or growth inhibition) at 200 ppm (Spodoptera littoralis; [5]) | percent effect (mortality or growth inhibition) at 200 ppm (Diabrotica Balteata; [6])

CC1=NOC(N(C=O)C(=O)c2ccc(C3=NO[C@@](c4cc(Br)cc(C(F)(F)F)c4)(C(F)(F)F)C3)cc2C)C1 (stereo partly drawn) [Compound A040, 4-[(5S)-5-[3-bromo-5-(trifluoromethyl)phenyl]-5-(trifluoromethyl)-4H-isoxazol-3-yl]-N-formyl-2-methyl-N-(3-methyl-4,5-dihydroisoxazol-5-yl)benzamide]
≥ 80%: percent effect (mortality or growth inhibition) at 200 ppm (Plutella xylostella; [1]) | mortality at 200 ppm (Thrips tabaci; [2]) | mortality at 200 ppm (Myzus persicae; [3]) | mortality at 200 ppm (Tetranychus urticae; [4]) | percent control (mortality, anti-feedant effect or growth inhibition) at 200 ppm (Spodoptera littoralis; [5]) | percent effect (mortality or growth inhibition) at 200 ppm (Diabrotica Balteata; [6])
